Measured values taken from patent US20080207667A1 (priority 2007, published 2008).

Columns and labels:
[1] = system: smoker; test: Spirometry pre and post treatment with nebulized nalbuphine (Example 3); type: in vivo, human
From the text: Spirometry measurements were taken pre and post treatment with nebulized nalbuphine.

[2] = system: asthmatic; test: Spirometry pre and post treatment with nebulized nalbuphine (Example 2); type: in vivo, human
Experimental: In this example, an asthmatic taking advair diskus for treatment of asthma was treated with nalbuphine according to the present method. Spirometry measurements were taken pre and post treatment with nebulized nalbuphine.

[3] = system: subject suffering from a respiratory disorder (former smoker); test: Spirometry pre and post treatment with nebulized nalbuphine (Example 1); type: in vivo, human; conditions: for FEF (25–75%) % of Prediction / FEF (25–75%) (L/S) Actual / FEV1 % of Prediction / FEV1 (L) Actual / FEV1/FVC % of Prediction / FEV1/FVC (%) Actual / FVC % of Prediction / FVC (L) Actual / PEF % of Prediction / PEF (L/S) Actual / FEF (25–75%) % Change / FEV1 % Change / FEV1/FVC % Change / FVC % Change / PEF % Change: post nebulized nalbuphine
From the text: This example illustrates the use of nalbuphine to treat a subject suffering from a respiratory disorder. The subject was a former smoker. Spirometry measurements were taken pre and post treatment with nebulized nalbuphine.

[4] = nalbuphine and its salts; cited from earlier work
[5] = post nebulized nalbuphine vs pre-nalbuphine
[6] = smoker treated with combivent and spiriva, post nebulized nalbuphine
[7] = asthmatic taking advair diskus, post nebulized nalbuphine
[8] = Treatment #1, vs pre-nalbuphine
[9] = Treatment #1, vs pre-nalbuphine, listed as nalbuphine
[10] = Treatment #2, vs pre-nalbuphine
[11] = Treatment #3, vs pre-nalbuphine

Oc1ccc2c3c1O[C@H]1[C@@H](O)CC[C@@]4(O)[C@@H](C2)N(CC2CCC2)CC[C@]314 [Nalbuphine, nalbuphine]
FEV1 % Change [1, 5]: 39%
FVC % Change [1, 5]: 34%
FEV1 % of Prediction [1, 6]: 84%
FEV1 (L) Actual [1, 6]: 2.745 L
FVC % of Prediction [1, 6]: 78%
FVC (L) Actual [1, 6]: 3.285 L
lung capacity and airflow after treatment ([1]; summary in words): marked improvement in lung capacity and airflow
FEV1 % of Prediction [2, 7]: 35%
FEV1 (L) Actual [2, 7]: 0.555 L
FVC % of Prediction [2, 7]: 54%
FVC (L) Actual [2, 7]: 1.155 L
FEV1 % Change [2, 5]: 48%
FVC % Change [2, 5]: 35%
FVC and FEV1 after treatment ([2]; summary in words): dramatic increase in FVC and FEV1
FEF (25–75%) % of Prediction ([3]; Treatment #1): 130%
FEF (25–75%) (L/S) Actual ([3]; Treatment #1): 5.043 L/S
FEV1 % of Prediction ([3]; Treatment #1): 139%
FEV1 (L) Actual ([3]; Treatment #1): 4.223 L
FEV1/FVC % of Prediction ([3]; Treatment #1): 106%
FEV1/FVC (%) Actual ([3]; Treatment #1): 84%
FVC % of Prediction ([3]; Treatment #1): 133%
FVC (L) Actual ([3]; Treatment #1): 5.035 L
PEF % of Prediction ([3]; Treatment #1): 93%
PEF (L/S) Actual ([3]; Treatment #1): 5.98 L/S
FEF (25–75%) % Change [3, 8]: 37.50%
FEV1 % Change [3, 8]: 46%
FEV1/FVC % Change [3, 8]: 2%
FVC % Change [3, 8]: 44.0%
PEF % Change [3, 8]: −6.4%
FEV1 % Change [3, 9]: forty six
FVC % Change [3, 9]: forty-four
FEF (25–75%) % of Prediction ([3]; Treatment #2): 137%
FEF (25–75%) (L/S) Actual ([3]; Treatment #2): 5.327 L/S
FEV1 % of Prediction ([3]; Treatment #2): 134%
FEV1 (L) Actual ([3]; Treatment #2): 4.259 L
FEV1/FVC % of Prediction ([3]; Treatment #2): 107%
FEV1/FVC (%) Actual ([3]; Treatment #2): 84%
FVC % of Prediction ([3]; Treatment #2): 127%
FVC (L) Actual ([3]; Treatment #2): 4.827 L
PEF % of Prediction ([3]; Treatment #2): 113%
PEF (L/S) Actual ([3]; Treatment #2): 7.297 L/S
FEF (25–75%) % Change [3, 10]: 45%
FEV1 % Change [3, 10]: 40%
FEV1/FVC % Change [3, 10]: 2%
FVC % Change [3, 10]: 38%
PEF % Change [3, 10]: 14%
FEF (25–75%) % of Prediction ([3]; Treatment #3): 129%
FEF (25–75%) (L/S) Actual ([3]; Treatment #3): 4.998 L/S
FEV1 % of Prediction ([3]; Treatment #3): 136%
FEV1 (L) Actual ([3]; Treatment #3): 4.11 L
FEV1/FVC % of Prediction ([3]; Treatment #3): 110%
FEV1/FVC (%) Actual ([3]; Treatment #3): 87%
FVC % of Prediction ([3]; Treatment #3): 125%
FVC (L) Actual ([3]; Treatment #3): 4.733 L
PEF % of Prediction ([3]; Treatment #3): 112%
PEF (L/S) Actual ([3]; Treatment #3): 7.225 L/S
FEF (25–75%) % Change [3, 11]: 36%
FEV1 % Change [3, 11]: 42%
FEV1/FVC % Change [3, 11]: 6%
FVC % Change [3, 11]: 35%
PEF % Change [3, 11]: 13%
lung capacity and airflow after treatment ([3]; summary in words): marked improvement in lung capacity and airflow
solubility in water [4]: sparingly soluble in water
